One series addresses T1, hCA I (Homo sapiens, UniProt P00915).
T1 construct: made in house
The experiment in a line: stopped-flow CO2 hydrase assay, hCA I. To be noted: stopped flow technique, mean from 3 different assays. Type of series: biochemical. How it is done: (§1) Target compounds of series (A) and (B) were screened as inhibitors concerning the physiologically relevant hCAs; cytosolic isoforms (hCA I and II) in addition to the transmembrane tumor related isoforms (hCA IX and XII) via a stopped-flow assay of carbonic anhydrase catalyzed CO2 hydration. Acetazolamide (AAZ), CA I drug, was also incorporated in the assays as a standard drug. […] Four CA isoforms inhibition activity was measured by assaying CA catalyzed CO2 hydration via an applied photophysics stopped-flow instrument. PRISM 3 and the Cheng-prusoff equation were used to determine the inhibition constant by non-linear least square methods as reported, and represent the mean from three different determination at least. All tested carbonic anhydrase isoforms were recombinant proteins prepared in lab as described earlier,[57].

Another series concerns the target T2, hCA II (Homo sapiens, UniProt P00918).
T2 construct: made in house
The experiment in a line: stopped-flow CO2 hydrase assay, hCA II. In kind it is biochemical. To be noted: for Ki: stopped flow technique, mean from 3 different assays. How it is done: as §1

For the next series, the target named is T3, hCA IX (Homo sapiens, UniProt Q16790).
T3 construct: made in house
The experiment in a line: stopped-flow CO2 hydrase assay, hCA IX. To be noted: for Selectivity index (SI) I/IX: hCA IX over off-target hCA I; for Selectivity index (SI) II/IX: hCA IX over off-target hCA II; for Ki: stopped flow technique, mean from 3 different assays. Type of series: biochemical. How it is done: as §1

In the next series the target is T4, hCA XII (Homo sapiens, UniProt O43570).
T4 construct: made in house
The experiment in a line: stopped-flow CO2 hydrase assay, hCA XII. In kind it is biochemical. To be noted: for Selectivity index (SI) I/XII: hCA XII over off-target hCA I; for Selectivity index (SI) II/XII: hCA XII over off-target hCA II; for Ki: stopped flow technique, mean from 3 different assays. How it is done: as §1

Another series deals with CNS cancer (SNB-75). The experiment in a line: NCI single dose SRB screen, SNB-75. Type of series: cell-based. To be noted: Homo sapiens, SNB-75, 48 h, 10^−5 M single dose, read-out: GI% CNS cancer (SNB-75). How it is done: (§2) Target compounds in series (A) and (B), were submitted to the National Cancer Institute (NCI) Developmental Therapeutic Program (www.dtp.nci.nih.gov), where they have been assessed, in vitro for their anticancer activity. Two series (A) and (B), were screened in a single dose (10 µM) versus full panel composed of 60 cancer cell lines, in accordance with protocol of drug evaluation branch, NCI, Bethesda. Sulforhodamine B (SRB) colorimetric assay was used to determine cell growth and viability,[40].
(§3) Protocol of Drug Evaluation Branch, NCI, Bethesda, was adopted in the antitumor assay. Assessment of cell growth and viability was carried out utilizing SRB assay and 48 h drug exposure protocol as previously reported,[40].

The next series concerns Renal cancer (UO-31). The experiment in a line: NCI single dose SRB screen, UO-31. In kind it is cell-based. To be noted: Homo sapiens, UO-31, 48 h, 10^−5 M single dose, read-out: GI% Renal cancer (UO-31). How it is done:
as §2, §3

In series [1] the test system is Breast cancer (MDA-MB-468). The series can be described thus: NCI single dose SRB screen, MDA-MB-468. Type of series: cell-based. To be noted: Homo sapiens, MDA-MB-468, 48 h, 10^−5 M single dose, 48 h, SRB; read-out: GI% Breast cancer (MDA-MB-468). How it is done:
as §2, §3

A further series concerns Leukemia (SR). The series can be described thus: NCI single dose SRB screen, SR. Type of series: cell-based. To be noted: 48 h, 10^−5 M single dose, read-out: GI% Leukemia (SR). How it is done: as §2, §3
Another series deals with leukemia (CCRF-CM). The series can be described thus: anti-proliferative activity under hypoxic condition (MTT), CCRF-CM. To be noted: hypoxic conditions (1%O2, 5% CO2 and 94% N2), mean ± S.D. of three experiments. Type of series: cell-based. How it is done:
All cells were incubated in hypoxic atmosphere (1% O2, 5% CO2, and 94%N2) and maintained at 37 °C. All procedures to determine compounds cytotoxicity were accomplished using MTT assay as reported,[59],[60].

SMILES strings stand for the structures.

T4 sequence (O43570 25-354): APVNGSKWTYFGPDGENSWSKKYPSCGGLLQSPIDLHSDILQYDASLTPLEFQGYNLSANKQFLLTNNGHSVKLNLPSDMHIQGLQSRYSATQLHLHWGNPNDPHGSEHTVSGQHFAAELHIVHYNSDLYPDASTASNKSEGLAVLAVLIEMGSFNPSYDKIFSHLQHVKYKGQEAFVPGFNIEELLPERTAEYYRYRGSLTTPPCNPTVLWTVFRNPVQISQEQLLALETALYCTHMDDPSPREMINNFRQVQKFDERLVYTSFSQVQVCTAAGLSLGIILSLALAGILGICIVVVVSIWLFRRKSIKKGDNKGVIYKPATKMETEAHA
T1 sequence (P00915 whole entry): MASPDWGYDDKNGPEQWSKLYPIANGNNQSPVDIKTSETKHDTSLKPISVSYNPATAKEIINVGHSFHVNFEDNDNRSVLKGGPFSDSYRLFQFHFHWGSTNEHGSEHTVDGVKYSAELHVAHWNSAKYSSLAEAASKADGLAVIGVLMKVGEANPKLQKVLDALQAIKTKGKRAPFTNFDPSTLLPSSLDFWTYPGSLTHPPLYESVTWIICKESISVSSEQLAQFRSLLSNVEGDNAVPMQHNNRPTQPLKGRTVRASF

For orientation: Ki means the dissociation constant of the complex between target and ligand, obtained from inhibition or displacement. Low values mean higher affinity, high ones lower affinity. As a reminder, the melting point is the temperature of the solid-liquid transition. In the case of `N#CCc1nc(N)nc(Nc2ccc(S(N)(=O)=O)cc2)n1` [Compound 10, 4-{[4-amino-6-(cyanomethyl)-1,3,5-triazin-2-yl]amino}benzene-1-sulfonamide], the melting point lay within 284 to 286 °C. The compound also had an inhibition constant Ki on hCA I of 72.3 nM. In addition, at hCA II, the affinity corresponds to a Ki of 49.2 nM. At hCA IX, the “Selectivity index (SI) I/IX” value turned out to be 0.03; the “Selectivity index (SI) II/IX” value worked out at 0.02; the affinity, expressed as Ki, was 2450 nM. On hCA XII, the “Selectivity index (SI) I/XII” value is reported as 0.01, the “Selectivity index (SI) II/XII” value is recorded as 0.006 and affinity was put at a Ki of 7.63 µM. Further, the inhibition at 10 µM in the series with CNS cancer (SNB-75) amounted to 33%. Moreover, in the series on Renal cancer (UO-31), the inhibition at 10 µM was at most 10%. Moreover, in series [1], the inhibition at 10 µM is at most 10%. Also, the inhibition at 10 µM in the series with Leukemia (SR) was at most 10%.
As to `N#C/C(=C\c1ccccc1)c1nc(N)nc(Nc2ccc(S(N)(=O)=O)cc2)n1` [Compound 12a, 4-({4-Amino-6-[(1E)-1-cyano-2-phenyleth-1-en-1-yl]-1,3,5-triazin-2-yl}amino)benzene-1-sulfonamide], the melting point fell in the range of 174 to 176 °C. This compound displayed an inhibition constant Ki at hCA I of 3600 nM. On hCA II, affinity was put at a Ki of 436 nM. On hCA IX, the “Selectivity index (SI) I/IX” value is given as 2.3, the “Selectivity index (SI) II/IX” value stood at 0.3 and the inhibition constant (Ki) worked out at 1540 nM. For the same compound, on hCA XII, the “Selectivity index (SI) I/XII” value was found to be 0.4, the “Selectivity index (SI) II/XII” value is recorded as 0.05 and the inhibitory constant (Ki) is 8.06 µM. The inhibition at 10 µM in the series on CNS cancer (SNB-75) was at most 10%. The inhibition at 10 µM with Renal cancer (UO-31) is at most 10%. In addition, the inhibition at 10 µM in series [1] is at most 10%. Also, in the series on Leukemia (SR), the inhibition at 10 µM was at most 10%.
The compound `N#C/C(=C\c1cccc(Br)c1)c1nc(N)nc(Nc2ccc(S(N)(=O)=O)cc2)n1` [Compound 12b, 4-({4-Amino-6-[(1E)-2-(3-bromophenyl)-1-cyanoeth-1-en-1-yl]-1,3,5-triazin-2-yl}amino)benzene-1-sulfonamide] had a melting point of 234 to 236 °C. Moreover, at hCA I, the affinity, expressed as Ki, was 2620 nM. Besides, at hCA II, the “decrease of hCA II activity relative to the m-fluoro analogue” value came to 8 folds and the Ki turned out to be 2000 nM. Also, at hCA IX, the “Selectivity index (SI) I/IX” value was 2.5, the “Selectivity index (SI) II/IX” value is given as 2 and the inhibition constant (Ki) worked out at 1020 nM. Besides, at hCA XII, the “Selectivity index (SI) I/XII” value came to 0.3, the “Selectivity index (SI) II/XII” value came to 0.2 and the Ki came to 8.21 µM. Moreover, the inhibition at 10 µM in the series with CNS cancer (SNB-75) amounted to 14%. Also, in the series with Renal cancer (UO-31), the inhibition at 10 µM was 16%. Also, in [1], the inhibition at 10 µM stood at 16%. The inhibition at 10 µM with Leukemia (SR) was 14%.
Consider `COc1ccc(/C=C(\C#N)c2nc(N)nc(Nc3ccc(S(N)(=O)=O)cc3)n2)cc1` [Compound 12c, 4-({4-Amino-6-[(1E)-1-cyano-2-(4-methoxyphenyl)eth-1-en-1-yl]-1,3,5-triazin-2-yl}amino)benzene-1-sulfonamide], for which the melting point lay in the range of 281 to 283 °C. For the same compound, on hCA I, the Ki stood at 962 nM. Also, on hCA II, the Ki was 1940 nM. Besides, on hCA IX, the “Selectivity index (SI) I/IX” value amounted to 0.7, the “Selectivity index (SI) II/IX” value came out at 1.4 and affinity was put at a Ki of 1390 nM. Also, on hCA XII, the “Selectivity index (SI) I/XII” value is reported as 0.1; the “Selectivity index (SI) II/XII” value is listed as 0.2; the affinity, expressed as Ki, was 8.68 µM. Besides, the inhibition at 10 µM in the series on CNS cancer (SNB-75) is at most 10%. The inhibition at 10 µM in the series on Renal cancer (UO-31) amounted to 14%. Further, in series [1], the inhibition at 10 µM was 22%. Moreover, the inhibition at 10 µM in the series on Leukemia (SR) stood at 16%.
Take `N#C/C(=C\c1ccc2c(c1)OCO2)c1nc(N)nc(Nc2ccc(S(N)(=O)=O)cc2)n1` [Compound 12e, 4-({4-Amino-6-[(1E)-2-(2H-1,3-benzodioxol-5-yl)-1-cyanoeth-1-en-1-yl]-1,3,5-triazin-2-yl}amino)benzene-1-sulfonamide]: the melting point lay within 269 to 271 °C. At hCA I, this compound came in with a Ki of 4050 nM. For the same compound, the affinity on hCA II, expressed as Ki, was 893 nM. Besides, on hCA IX, the “Selectivity index (SI) I/IX” value is 4; the “Selectivity index (SI) II/IX” value stood at 1; the affinity, expressed as Ki, was 971 nM. In addition, at hCA XII, the “Selectivity index (SI) I/XII” value is recorded as 0.5, the “Selectivity index (SI) II/XII” value was found to be 0.1 and the Ki was 8.54 µM. In addition, the inhibition at 10 µM in the series with CNS cancer (SNB-75) was at most 10%. Also, the inhibition at 10 µM in the series with Renal cancer (UO-31) came out at 13%. For the same compound, in [1], the inhibition at 10 µM is 27%. Also, in the series with Leukemia (SR), the inhibition at 10 µM worked out at 11%.
For the compound `N#C/C(=C\c1ccc(F)cc1)c1nc(N)nc(Nc2ccc(S(N)(=O)=O)cc2)n1` [Compound 12f., 4-({4-Amino-6-[(1E)-1-cyano-2-(4-fluorophenyl)eth-1-en-1-yl]-1,3,5-triazin-2-yl}amino)benzene-1-sulfonamide], the melting point was 234 to 236 °C. On hCA I, the affinity corresponds to a Ki of 590 nM. Also, the Ki on hCA II turned out to be 493 nM. Moreover, at hCA IX, the “Selectivity index (SI) I/IX” value is 3, the “Selectivity index (SI) II/IX” value is on record as 2.5 and the inhibition constant (Ki) was determined as 195 nM. On hCA XII, the “Selectivity index (SI) I/XII” value is 0.1, the “Selectivity index (SI) II/XII” value was determined as 0.1 and affinity was put at a Ki of 4.2 µM. The inhibition at 10 µM with CNS cancer (SNB-75) came out at 10%. In addition, in the series on Renal cancer (UO-31), the inhibition at 10 µM came to 15%. In [1], the inhibition at 10 µM came to 15%. Moreover, the inhibition at 10 µM with Leukemia (SR) turned out to be 11%.
With `Cc1ccc(/C=C(\C#N)c2nc(N)nc(Nc3ccc(S(N)(=O)=O)cc3)n2)cc1` [Compound 12g, 4-({4-Amino-6-[(1E)-1-cyano-2-(4-methylphenyl)eth-1-en-1-yl]-1,3,5-triazin-2-yl}amino)benzene-1-sulfonamide], the melting point lay within 204 to 206 °C. On hCA I, this compound yielded a Ki of 159 nM. Further, the Ki on hCA II turned out to be 697 nM. In addition, at hCA IX, the “Selectivity index (SI) I/IX” value is given as 0.8; the “Selectivity index (SI) II/IX” value is reported as 3.6; the affinity, expressed as Ki, was 195 nM. For the same compound, at hCA XII, the “Selectivity index (SI) I/XII” value was determined as 0.07, the “Selectivity index (SI) II/XII” value amounted to 0.3 and the Ki is 2.31 µM. Moreover, the inhibition at 10 µM with CNS cancer (SNB-75) amounted to 15%. Also, the inhibition at 10 µM in the series on Renal cancer (UO-31) was determined as 11%. Besides, the inhibition at 10 µM in [1] was 11%. Besides, the inhibition at 10 µM with Leukemia (SR) was at most 10%.
Compound `N#C/C(=C\c1cccc(Cl)c1)c1nc(N)nc(Nc2ccc(S(N)(=O)=O)cc2)n1` [Compound 12h, 4-({4-Amino-6-[(1E)-2-(3-chlorophenyl)-1-cyanoeth-1-en-1-yl]-1,3,5-triazin-2-yl}amino)benzene-1-sulfonamide] came in with a melting point of 222 to 224 °C. This compound also yielded a Ki on hCA I of 508 nM. In addition, the inhibitory constant (Ki) on hCA II was determined as 320 nM. Further, at hCA IX, the “Selectivity index (SI) I/IX” value was found to be 9.7, the “Selectivity index (SI) II/IX” value came to 6.1 and the Ki was 52.2 nM. Also, at hCA XII, the “Selectivity index (SI) I/XII” value stood at 5.8, the “Selectivity index (SI) II/XII” value was 3.6 and the affinity corresponds to a Ki of 0.0875 µM. For the same compound, the inhibition at 10 µM in the series on CNS cancer (SNB-75) is at most 10%. Further, the inhibition at 10 µM with Renal cancer (UO-31) is at most 10%. Further, in [1], the inhibition at 10 µM was determined as 11%. For the same compound, the inhibition at 10 µM in the series with Leukemia (SR) came to 27%.
The IC50 is the point on the concentration scale where inhibition reaches its midpoint. Read a high IC50 as weaker potency. In the series on leukemia (CCRF-CM), `CN[C@@H]1C[C@H]2O[C@@](C)([C@@H]1OC)n1c3ccccc3c3c4c(c5c6ccccc6n2c5c31)C(=O)NC4` [Staurosporine, reference compound] came in with a 50% inhibitory concentration (IC50) of 2170 ± 110 nM.
